biological target: PRS (prolyl-tRNA synthetase) protein, PRS portion of EPRS (Homo sapiens (Human), UniProt P07814); assay: PRS enzyme activity inhibition experiment ([3H]proline, liquid scintillation); format: biochemical; conditions: purified PRS protein, 37° C. for 5 to 10 minutes
Description: In order to confirm the biological activities of the compounds prepared in Examples, % inhibition or IC50 values of PRS enzyme ([…]) activities were calculated.
Specifically, the portion corresponding to PRS in cDNA of EPRS was subcloned, and the obtained high-purity PRS protein was purified and used in the experiment. The compounds (1 μM) prepared in Examples were added into the reaction buffer (20 mM KPO4 (pH 7.4), 6 mM MgAc, 5 mM ATP, […] tRNA, 0.5 mM DTT, […][^3H]proline (1 mCi/mL)) and allowed to react at 37° C. for 5 to 10 minutes. The reaction was terminated with 3M paper that was in advance dried by addition of 5% TCA. The radioactivity was measured using a liquid scintillation counter.
% Inhibition and IC50 values of the respective compounds were calculated and analyzed using Microsoft Excel or Sigma Plot 8.0. In Tables 1 to 3, the results are divided into A, B and C according to the range of IC50. The case where the derived IC50 is 100 nM or less is represented by “A”, the case where the IC50 is 100 to 500 nM is represented by “B”, and the case where the IC50 is 500 nM or higher is represented by “C”.

PRS (prolyl-tRNA synthetase) protein, PRS portion of EPRS, sequence (P07814 1007-1512): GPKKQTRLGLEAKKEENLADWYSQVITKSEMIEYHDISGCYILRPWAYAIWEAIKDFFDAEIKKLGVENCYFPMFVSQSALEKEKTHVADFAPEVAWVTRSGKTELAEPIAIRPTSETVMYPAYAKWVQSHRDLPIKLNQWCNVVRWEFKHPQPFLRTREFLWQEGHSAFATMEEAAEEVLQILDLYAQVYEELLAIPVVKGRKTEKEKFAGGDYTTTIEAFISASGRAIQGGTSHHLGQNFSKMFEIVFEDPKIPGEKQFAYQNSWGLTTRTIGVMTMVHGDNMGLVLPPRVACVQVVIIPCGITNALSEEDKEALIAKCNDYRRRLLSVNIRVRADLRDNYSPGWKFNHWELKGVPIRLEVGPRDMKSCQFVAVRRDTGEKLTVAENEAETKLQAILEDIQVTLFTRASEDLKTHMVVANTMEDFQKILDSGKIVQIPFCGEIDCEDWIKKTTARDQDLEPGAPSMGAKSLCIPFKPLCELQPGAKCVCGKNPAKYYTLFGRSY

C/C(=C\[C@H]1NCCC[C@@H]1O)Cn1cnc2c(C)c(Br)ccc21 [Example 222, (2R,3S)-2-((E)-3-(5-bromo-4-methyl-1H-benzo[d]imidazol-1-yl)-2-methylprop-1-en-1-yl)piperidin-3-ol] and Cc1c(Cl)ccc2c1ncn2C/C(F)=C/[C@H]1NCCC[C@@H]1O [Example 217, (2R,3S)-2-((Z)-3-(5-chloro-4-methyl-1H-benzo[d]imidazol-1-yl)-2-fluoroprop-1-enyl)piperidin-3-ol] cannot be ordered by IC50: ≥ 500 nM for the first, ≥ 500 nM for the second.

CC(C)CCn1cc(-c2cc(Cl)cc3ncn(CCC[C@H]4NCCC[C@@H]4O)c23)cn1 [Example 107, (2R,3S)-2-(3-(5-chloro-7-(1-isopentyl-1H-pyrazol-4-yl)-1H-benzo[d]imidazol-1-yl)propyl)piperidin-3-ol] and Cn1cc(-c2cc(Cl)cc3ncn(CCC[C@H]4NCCC[C@@H]4O)c23)ccc1=O [Example 88, 5-(5-chloro-1-(3-((2R,3S)-3-hydroxypiperidin-2-yl)propyl)-1H-benzo[d]imidazol-7-yl)-1-methylpyridin-2(1H)-one] cannot be ordered by IC50: 100 to 500 nM for the first, ≥ 500 nM for the second.

O[C@H]1CCCN[C@@H]1CCCn1cnc2c(F)cc(Br)cc21 [Example 72, (2R,3S)-2-(3-(6-bromo-4-fluoro-1H-benzo[d]imidazol-1-yl)propyl)piperidin-3-ol] and O[C@H]1CCCN[C@@H]1CCCn1cnc2cc(Br)cc(F)c21 [Example 73, (2R,3S)-2-(3-(5-bromo-7-fluoro-1H-benzo[d]imidazol-1-yl)propyl)piperidin-3-ol] fall in the same range of IC50: 100 to 500 nM for the first, 100 to 500 nM for the second.

O[C@H]1CCCN[C@@H]1/C=C/Cn1cnc2c(Cl)c(Cl)cnc21 [Example 189, (2R,3S)-2-((E)-3-(6,7-dichloro-3H-imidazo[4,5-b]pyridin-3-yl)prop-1-en-1-yl)piperidin-3-ol] and Cc1ccc2c(ncn2C/C=C/[C@H]2NCCC[C@@H]2O)c1Cl [Example 175, (2R,3S)-2-((E)-3-(4-chloro-5-methyl-1H-benzo[d]imidazol-1-yl)prop-1-en-1-yl)piperidin-3-ol] fall in the same range of IC50: 100 to 500 nM for the first, 100 to 500 nM for the second.

O[C@H]1CCCN[C@@H]1CCCn1cnc2cc(Cl)cc(-c3csc(C4CCOCC4)n3)c21 [Example 103, (2R,3S)-2-(3-(5-chloro-7-(2-(tetrahydro-2H-pyran-4-yl)thiazol-4-yl)-1H-benzo[d]imidazol-1-yl)propyl)piperidin-3-ol] and O[C@H]1CCCN[C@@H]1CCCn1cnc2cc(Cl)cc(-c3cnc(C4CC4)s3)c21 [Example 100, (2R,3S)-2-(3-(5-chloro-7-(2-cyclopropylthiazol-5-yl)-1H-benzo[d]imidazol-1-yl)propyl)piperidin-3-ol] cannot be ordered by IC50: ≥ 500 nM for the first, 100 to 500 nM for the second.

O[C@H]1CCCN[C@@H]1CCCn1cnc2cccc(-c3ccccc3F)c21 [Example 26, (2R,3S)-2-(3-(7-(2-fluorophenyl)-1H-benzo[d]imidazol-1-yl)propyl)piperidin-3-ol] and O[C@H]1CCCN[C@@H]1CCCn1cnc2ccc(F)c(F)c21 [Example 50, (2R,3S)-2-(3-(6,7-difluoro-1H-benzo[d]imidazol-1-yl)propyl)piperidin-3-ol] cannot be ordered by IC50: ≥ 500 nM for the first, 100 to 500 nM for the second.

O[C@H]1CCCN[C@@H]1/C=C/CN1CCc2ccccc21 [Example 194, (2R,3S)-2-((E)-3-(indolin-1-yl)prop-1-en-1-yl)piperidin-3-ol] and O[C@H]1CCCN[C@@H]1/C=C/CN1CCc2cc(Cl)ccc21 [Example 195, (2R,3S)-2-((E)-3-(5-chloroindolin-1-yl)prop-1-en-1-yl)piperidin-3-ol] cannot be ordered by IC50: ≥ 500 nM for the first, ≥ 500 nM for the second.

O[C@H]1CCCN[C@@H]1CCCn1cnc2ccc(-c3cccc(F)c3)cc21 [Example 24, (2R,3S)-2-(3-(6-(3-fluorophenyl)-1H-benzo[d]imidazol-1-yl)propyl)piperidin-3-ol] and O[C@H]1CCCN[C@@H]1/C=C/Cn1cnc2ccc(-c3cccc(F)c3)cc21 [Example 191, (2R,3S)-2-((E)-3-(6-(3-fluorophenyl)-1H-benzo[d]imidazol-1-yl)prop-1-en-1-yl)piperidin-3-ol] cannot be ordered by IC50: ≤ 100 nM for the first, 100 to 500 nM for the second.

CCN(C)c1ncnc2c1ncn2CCC[C@H]1NCCC[C@@H]1O [Example 139, (2R,3S)-2-(3-(6-(ethyl(methyl)amino)-9H-purin-9-yl)propyl)piperidin-3-ol] and Cc1ccc2c(ncn2CCC[C@H]2NCCC[C@@H]2O)c1C [Example 51, (2R,3S)-2-(3-(4,5-dimethyl-1H-benzo[d]imidazol-1-yl)propyl)piperidin-3-ol] cannot be ordered by IC50: ≥ 500 nM for the first, ≥ 500 nM for the second.

COc1cc2ncn(CCC[C@H]3NCCC[C@@H]3O)c2cc1F [Example 38, (2R,3S)-2-(3-(6-fluoro-5-methoxy-1H-benzo[d]imidazol-1-yl)propyl)piperidin-3-ol] and Cc1cc2c(cc1F)ncn2CCC[C@H]1NCCC[C@@H]1O [Example 39, (2R,3S)-2-(3-(5-fluoro-6-methyl-1H-benzo[d]imidazol-1-yl)propyl)piperidin-3-ol] cannot be ordered by IC50: ≥ 500 nM for the first, 100 to 500 nM for the second.

COC(=O)c1cn(C/C=C/[C@H]2NCCC[C@@H]2O)c2ccc(Br)cc12 [Example 213, methyl 5-bromo-1-((E)-3-((2R,3S)-3-hydroxypiperidin-2-yl)allyl)-1H-indole-3-carboxylate] and CNC(=O)c1cn(C/C=C/[C@H]2NCCC[C@@H]2O)c2ccc(Br)cc12 [Example 215, 5-bromo-1-((E)-3-((2R,3S)-3-hydroxypiperidin-2-yl)allyl)-N-methyl-1H-indole-3-carboxamide] cannot be ordered by IC50: ≥ 500 nM for the first, ≥ 500 nM for the second.

O[C@H]1CCCN[C@@H]1CCCn1nc(C(F)(F)F)c2cc(Cl)ccc21 [Example 156, (2R,3S)-2-(3-(5-chloro-3-(trifluoromethyl)-1H-indazol-1-yl)propyl)piperidin-3-ol] and Cc1c(F)ccc2ncn(CCC[C@H]3NCCC[C@@H]3O)c12 [Example 65, (2R,3S)-2-(3-(6-fluoro-7-methyl-1H-benzo[d]imidazol-1-yl)propyl)piperidin-3-ol] cannot be ordered by IC50: ≥ 500 nM for the first, 100 to 500 nM for the second.

O=C(O)c1cn(C/C=C/[C@H]2NCCC[C@@H]2O)c2cccc(Cl)c12 [Example 205, 4-chloro-1-((E)-3-((2R,3S)-3-hydroxypiperidin-2-yl)allyl)-1H-indole-3-carboxylic acid] and O=C(O)c1cn(C/C=C/[C@H]2NCCC[C@@H]2O)c2cc(F)ccc12 [Example 208, 6-fluoro-1-((E)-3-((2R,3S)-3-hydroxypiperidin-2-yl)allyl)-1H-indole-3-carboxylic acid] cannot be ordered by IC50: ≥ 500 nM for the first, ≥ 500 nM for the second.

O[C@H]1CCCN[C@@H]1CCCn1cnc2ccc(Br)cc21 [Example 4, (2R,3S)-2-(3-(6-bromo-1H-benzo[d]imidazol-1-yl)propyl)piperidin-3-ol] and O[C@H]1CCCN[C@@H]1CCCn1cnc2cnc(Cl)cc21 [Example 122, (2R,3S)-2-(3-(6-chloro-1H-imidazo[4,5-c]pyridin-1-yl)propyl)piperidin-3-ol] fall in the same range of IC50: 100 to 500 nM for the first, 100 to 500 nM for the second.

Cc1ncc(-c2cc(Cl)cc3ncn(CCC[C@H]4NCCC[C@@H]4O)c23)s1 [Example 85, (2R,3S)-2-(3-(5-chloro-7-(2-methylthiazol-5-yl)-1H-benzo[d]imidazol-1-yl)propyl)piperidin-3-ol] and Cc1cc(-c2cc(Cl)cc3ncn(CCC[C@H]4NCCC[C@@H]4O)c23)c(C)s1 [Example 114, (2R,3S)-2-(3-(5-chloro-7-(2,5-dimethylthiophen-3-yl)-1H-benzo[d]imidazol-1-yl)propyl)piperidin-3-ol] fall in the same range of IC50: 100 to 500 nM for the first, 100 to 500 nM for the second.

Cc1cc2ncn(C/C=C/[C@H]3NCCC[C@@H]3O)c2cc1C [Example 169, (2R,3S)-2-((E)-3-(5,6-dimethyl-1H-benzo[d]imidazol-1-yl)prop-1-en-1-yl)piperidin-3-ol] and Cc1ccc2c(c1)c(C)nn2C/C=C/[C@H]1NCCC[C@@H]1O [Example 201, (2R,3S)-2-((E)-3-(3,5-dimethyl-1H-indazol-1-yl)prop-1-en-1-yl)piperidin-3-ol] cannot be ordered by IC50: ≥ 500 nM for the first, ≥ 500 nM for the second.

COc1ccc2ncn(CCC[C@H]3NCCC[C@@H]3O)c2c1Cl [Example 60, (2R,3S)-2-(3-(7-chloro-6-methoxy-1H-benzo[d]imidazol-1-yl)propyl)piperidin-3-ol] and O[C@H]1CCCN[C@@H]1CCCn1cnc2nccc(Cl)c21 [Example 126, (2R,3S)-2-(3-(7-chloro-1H-imidazo[4,5-b]pyridin-1-yl)propyl)piperidin-3-ol] fall in the same range of IC50: 100 to 500 nM for the first, 100 to 500 nM for the second.

O[C@H]1CCCN[C@@H]1CCCn1cnc2c(N3CCCC3)cccc21 [Example 18, (2R,3S)-2-(3-(4-(pyrrolidin-1-yl)-1H-benzo[d]imidazol-1-yl)propyl)piperidin-3-ol] and O[C@H]1CCCN[C@@H]1CCCn1cnc2c(N3CCCCC3)cccc21 [Example 19, (2R,3S)-2-(3-(4-(piperidin-1-yl)-1H-benzo[d]imidazol-1-yl)propyl)piperidin-3-ol] cannot be ordered by IC50: ≥ 500 nM for the first, ≥ 500 nM for the second.

O[C@H]1CCCN[C@@H]1/C=C/Cn1cnc2nc(Br)ccc21 [Example 184, (2R,3S)-2-((E)-3-(5-bromo-1H-imidazo[4,5-b]pyridin-1-yl)prop-1-en-1-yl)piperidin-3-ol] and O=[N+]([O-])c1ccc2c(ncn2C/C=C/[C@H]2NCCC[C@@H]2O)c1Cl [Example 178, (2R,3S)-2-((E)-3-(4-chloro-5-nitro-1H-benzo[d]imidazol-1-yl)prop-1-en-1-yl)piperidin-3-ol] cannot be ordered by IC50: ≥ 500 nM for the first, 100 to 500 nM for the second.

From patent publication US10981917B2, “Heterocyclic compound, its preparation method, and pharmaceutical composition comprising the same” (Daewoong Pharmaceutical Co., Ltd., priority 2017, dated 2021)
